Measured values published in the NIST ThermoML archive (doi:10.1016/j.tca.2007.03.018).

Assays:
[1] = molar heat capacity at constant pressure; settings: 101.33 kPa
[2] = Molar enthalpy of transition or fusion
[3] = for molar entropy: 101.33 kPa; for vapor or sublimation pressure: Knudsen effusion

C1C2CC3CC1CC(C14CC5CC(CC(C5)C1)C4)(C2)C3 [1,1'-biadamantane]
Settings	molar entropy, [3] [J/K/mol]	molar heat capacity at constant pressure, [1] [J/K/mol]	vapor or sublimation pressure, [3] [kPa]
5 K, Crystal 3, Small (less than 1 g) adiabatic calorimetry	0.123	0.4412	–
10 K, Crystal 3, Small (less than 1 g) adiabatic calorimetry	1.008	3.035	–
20 K, Crystal 3, Small (less than 1 g) adiabatic calorimetry	6.713	16	–
30 K, Crystal 3, Small (less than 1 g) adiabatic calorimetry	16.03	30.58	–
40 K, Crystal 3, Small (less than 1 g) adiabatic calorimetry	26.5	42.31	–
50 K, Crystal 3, Small (less than 1 g) adiabatic calorimetry	37.01	52.05	–
60 K, Crystal 3, Small (less than 1 g) adiabatic calorimetry	47.28	60.95	–
70 K, Crystal 3, Small (less than 1 g) adiabatic calorimetry	57.32	69.55	–
80 K, Crystal 3, Small (less than 1 g) adiabatic calorimetry	67.2	78.54	–
90 K, Crystal 3, Small (less than 1 g) adiabatic calorimetry	76.98	87.69	–
100 K, Crystal 3, Small (less than 1 g) adiabatic calorimetry	86.7	97.04	–
110 K, Crystal 3, Small (less than 1 g) adiabatic calorimetry	96.4	106.6	–
120 K, Crystal 3, Small (less than 1 g) adiabatic calorimetry	106.1	116.4	–
130 K, Crystal 3, Small (less than 1 g) adiabatic calorimetry	115.8	126.3	–
140 K, Crystal 3, Small (less than 1 g) adiabatic calorimetry	125.5	136.4	–
150 K, Crystal 3, Small (less than 1 g) adiabatic calorimetry	135.2	146.7	–
160 K, Crystal 3, Small (less than 1 g) adiabatic calorimetry	145.1	157.3	–
170 K, Crystal 3, Small (less than 1 g) adiabatic calorimetry	155	168.2	–
180 K, Crystal 3, Small (less than 1 g) adiabatic calorimetry	164.9	179.3	–
190 K, Crystal 3, Small (less than 1 g) adiabatic calorimetry	174.9	190.7	–
200 K, Crystal 3, Small (less than 1 g) adiabatic calorimetry	184.9	202.7	–
210 K, Crystal 3, Small (less than 1 g) adiabatic calorimetry	195.1	214.7	–
220 K, Crystal 3, Small (less than 1 g) adiabatic calorimetry	205.4	227.1	–
230 K, Crystal 3, Small (less than 1 g) adiabatic calorimetry	215.8	240	–
240 K, Crystal 3, Small (less than 1 g) adiabatic calorimetry	226.3	253.4	–
250 K, Crystal 3, Small (less than 1 g) adiabatic calorimetry	237	267.7	–
260 K, Crystal 3, Small (less than 1 g) adiabatic calorimetry	247.6	281.1	–
270 K, Crystal 3, Small (less than 1 g) adiabatic calorimetry	258.5	295.3	–
273.15 K, Crystal 3, Small (less than 1 g) adiabatic calorimetry	262.1	299.8	–
280 K, Crystal 3, Small (less than 1 g) adiabatic calorimetry	269.5	309.6	–
290 K, Crystal 3, Small (less than 1 g) adiabatic calorimetry	280.6	324	–
298.15 K, Crystal 3, Small (less than 1 g) adiabatic calorimetry	289.9	335.3	–
300 K, Crystal 3, Small (less than 1 g) adiabatic calorimetry	291.9	338	–
310 K, Crystal 3, Small (less than 1 g) adiabatic calorimetry	303.2	352.8	–
320 K, Crystal 3, Small (less than 1 g) adiabatic calorimetry	314.6	366.5	–
330 K, Crystal 3, Small (less than 1 g) adiabatic calorimetry	326.1	378.2	–
336.3 K, Crystal 2, Small (less than 1 g) adiabatic calorimetry	336.8	385	–
336.3 K, Crystal 3, Small (less than 1 g) adiabatic calorimetry	333.4	385	–
340 K, Crystal 2, Small (less than 1 g) adiabatic calorimetry	340	389	–
350 K, Crystal 2, Small (less than 1 g) adiabatic calorimetry	352.4	400	–
360 K, Crystal 2, Small (less than 1 g) adiabatic calorimetry	362.8	412	–
370 K, Crystal 2, Small (less than 1 g) adiabatic calorimetry	374.3	424	–
380 K, Crystal 2, Large sample (1 g) DSC	385.8	437	–
390 K, Crystal 2, Large sample (1 g) DSC	397.3	450	–
392.77 K, Crystal 2	–	–	0.0005447
398 K, Crystal 2	–	–	0.0008576
400 K, Crystal 2, Large sample (1 g) DSC	408.8	463	–
402.91 K, Crystal 2	–	–	0.001308
407.9 K, Crystal 2	–	–	0.001881
410 K, Crystal 2, Large sample (1 g) DSC	420.4	477	–
412.88 K, Crystal 2	–	–	0.002772
417.8 K, Crystal 2, Large sample (1 g) DSC	429.5	487	–
420 K, Crystal 2, Large sample (1 g) DSC	432.1	491	–
422.86 K, Crystal 2	–	–	0.006026
427.75 K, Crystal 2	–	–	0.00828
430 K, Crystal 2, Large sample (1 g) DSC	444	505	–
432.81 K, Crystal 2	–	–	0.01195
437.82 K, Crystal 2	–	–	0.01674
440 K, Crystal 2, Large sample (1 g) DSC	456	520	–
442.66 K, Crystal 2	–	–	0.02466
450 K, Crystal 2, Large sample (1 g) DSC	467	535	–
460 K, Crystal 2, Large sample (1 g) DSC	479	551	–
470 K, Crystal 2, Large sample (1 g) DSC	491	567	–
480 K, Crystal 2, Large sample (1 g) DSC	503	582	–
490 K, Crystal 2, Large sample (1 g) DSC	516	598	–
500 K, Crystal 2, Large sample (1 g) DSC	528	614	–
509.6 K, Crystal 1, Large sample (1 g) DSC	542	629	–
509.6 K, Crystal 2, Large sample (1 g) DSC	540	629	–
510 K, Crystal 1, Large sample (1 g) DSC	543	630	–
520 K, Crystal 1, Large sample (1 g) DSC	555	646	–
530 K, Crystal 1, Large sample (1 g) DSC	568	662	–
535 K, Crystal 1, Large sample (1 g) DSC	574	669	–
540 K, Crystal 1, Large sample (1 g) DSC	580	677	–
545 K, Crystal 1, Large sample (1 g) DSC	586	685	–
550 K, Crystal 1, Large sample (1 g) DSC	593	693	–
555 K, Crystal 1, Large sample (1 g) DSC	599	701	–
560 K, Crystal 1, Large sample (1 g) DSC	605	709	–

Settings	Molar enthalpy of transition or fusion, Crystal 1, DSC [kcal/mol]	Molar enthalpy of transition or fusion, Crystal 2, DSC [kcal/mol]	Molar enthalpy of transition or fusion, Crystal 3, Adiabatic calorimetry [kcal/mol]	Triple point temperature, Crystal 1, DTA [K]	Triple point temperature, Crystal 2, DTA [K]	Triple point temperature, Crystal 3 [K]
[2]	16.7	0.311	0.276	–	–	–
[3]	–	–	–	561	509.6	336.3
